“And” between values parts separate entries of the source, which are not always exact repeats. Identical values can stand only once. Like-named read-outs stand apart in the source and are kept apart here.
How the values were obtained:
[1] = molecular target: HsProRS (Homo sapiens, UniProt P07814); settings: ref Heacock et al.; cited from earlier work
[2] = molecular target: HT-PfcProRS (Plasmodium falciparum, UniProt Q8I5R7); experiment: biochemical
Protocol: (§1) A Multidrop Combi Reagent Dispenser (Thermo Fisher Scientific) was used to dispense 20 μL of 2× protein solution into each well. […] Plates were mixed on an Ika MTS 2/4 Digital Microtiter Shaker at 750 rpm for 2 min, centrifuged at 1000 × g at 25 °C for 1 min, and allowed to equilibrate for 2 h at room temperature before TR-FRET measurements were taken.
(§2) PRISM (V. 8.4.3–9.1.0, GraphPad) was used to perform non-linear regression analysis (log(inhibitor) vs. response–Variable slope (four parameters)), plot dose-response curves, and calculate IC50 values. The Cheng–Prusoff equation was used to convert IC50 to KD values (Eq. (4)):4 KD=IC50/1+[MAT379]/KD,MAT379

[3] = molecular target: T1, HT-HsProRS (Homo sapiens, UniProt P07814); settings: replicates 1-4
T1 sequence (P07814 996-1512): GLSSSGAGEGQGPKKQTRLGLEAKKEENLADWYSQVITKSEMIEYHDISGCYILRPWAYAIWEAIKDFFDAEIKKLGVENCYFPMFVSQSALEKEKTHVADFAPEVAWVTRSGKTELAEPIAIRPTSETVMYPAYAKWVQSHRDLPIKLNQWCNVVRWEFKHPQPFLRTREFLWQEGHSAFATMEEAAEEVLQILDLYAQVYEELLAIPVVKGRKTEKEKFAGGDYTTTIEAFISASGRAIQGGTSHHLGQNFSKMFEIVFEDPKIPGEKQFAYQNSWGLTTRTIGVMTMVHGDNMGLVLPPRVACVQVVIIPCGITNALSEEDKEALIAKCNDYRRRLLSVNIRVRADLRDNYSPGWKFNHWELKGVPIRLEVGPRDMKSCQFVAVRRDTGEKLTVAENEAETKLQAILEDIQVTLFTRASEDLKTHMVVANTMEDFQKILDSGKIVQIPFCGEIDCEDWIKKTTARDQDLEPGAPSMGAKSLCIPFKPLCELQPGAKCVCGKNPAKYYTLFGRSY
Protocol: as §1, §2

[4] = molecular target: T1, HT-HsProRS; experiment: biochemical
Protocol: as §1, §2

[5] = test system: P. falciparum Dd2-2D4; experiment: P. falciparum asexual blood stage (ABS) growth assay, SYBR Green, 72 h, wild-type parasites; assay type: cell-based, Plasmodium falciparum; settings: Plasmodium falciparum; cell line Dd2-2D4 (parent); read-out: EC50 [nM] mean
[6] = test system: P. falciparum Dd2-2D4 NCP26 selections S1-3; experiment: ABS growth assay on bulk populations and clones from NCP26 resistance selections S1-3; assay type: cell-based, Plasmodium falciparum; settings: Plasmodium falciparum
Protocol: In short, P. falciparum erythrocytic-stage parasites at 1% parasitemia and 1% hematocrit in RPMI + 0.5% Albumax were seeded at 40 μL/well in 384-well plates with test compounds in triplicate, dose-response format with 10 μM dihydroartemisinin as a kill-control and blank (no compound) wells as a growth-control. […] After 72 h, growth was quantified by measuring fluorescence (Molecular Devices SpectraMax iD5) following SYBR Green 1 staining. Data were analyzed in Excel and plotted in PRISM (V. 8.4.3–9.1.0, GraphPad).
This cycle was repeated for ~50 generations (~100 days), corresponding to 5–6 cycles of drug pressure.
Clonal parasites were isolated from each selection flask by limiting dilution of ring stage parasites in 96-well plates to an average of 0.8 and 0.2 parasites per well.

HT-PfcProRS, sequence (Q8I5R7 249-746): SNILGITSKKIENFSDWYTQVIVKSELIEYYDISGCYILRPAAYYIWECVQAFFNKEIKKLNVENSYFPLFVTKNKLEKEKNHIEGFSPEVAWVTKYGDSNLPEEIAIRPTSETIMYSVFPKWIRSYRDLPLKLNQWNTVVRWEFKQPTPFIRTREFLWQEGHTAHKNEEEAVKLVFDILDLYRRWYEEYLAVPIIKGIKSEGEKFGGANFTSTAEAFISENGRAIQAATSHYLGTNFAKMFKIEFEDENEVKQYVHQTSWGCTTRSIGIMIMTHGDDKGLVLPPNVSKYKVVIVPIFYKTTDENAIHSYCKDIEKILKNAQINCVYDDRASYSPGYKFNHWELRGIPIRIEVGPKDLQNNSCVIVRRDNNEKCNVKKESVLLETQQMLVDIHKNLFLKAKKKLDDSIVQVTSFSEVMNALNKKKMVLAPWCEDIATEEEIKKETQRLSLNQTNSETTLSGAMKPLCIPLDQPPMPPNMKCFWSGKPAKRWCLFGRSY

Nc1ncnc2c1ncn2[C@@H]1O[C@H](COP(=O)(O)OP(=O)(O)OP(=O)(O)O)[C@@H](O)[C@H]1O [ATP]
Km [1]: 500 µM
Kd [2]: 892000 nM
ATP - […] HT-HsProRS - 1000nM MAT379 ([3]; Log[Substrate] (M) -1.301): 1.53E-02 and -2.24E-04 and 3.02E-02 and 2.38E-02
ATP - […] HT-HsProRS - 1000nM MAT379 ([3]; Log[Substrate] (M) -1.602): 2.53E-02 and 6.72E-02 and 4.62E-03 and 4.29E-02
ATP - […] HT-HsProRS - 1000nM MAT379 ([3]; Log[Substrate] (M) -1.903): 3.94E-02 and 5.54E-02 and 1.78E-02 and 4.02E-02
ATP - […] HT-HsProRS - 1000nM MAT379 ([3]; Log[Substrate] (M) -2.204): -1.77E-02 and 2.78E-02 and -2.71E-02
ATP - […] HT-HsProRS - 1000nM MAT379 ([3]; Log[Substrate] (M) -2.505): 4.93E-03 and 1.38E-02 and 2.29E-03 and -1.57E-02
ATP - […] HT-HsProRS - 1000nM MAT379 ([3]; Log[Substrate] (M) -2.806): 3.39E-02 and 3.33E-02 and 1.97E-02 and 4.46E-02
ATP - […] HT-HsProRS - 1000nM MAT379 ([3]; Log[Substrate] (M) -3.107): 5.86E-02 and 6.01E-02 and 5.77E-02 and 4.19E-02
ATP - […] HT-HsProRS - 1000nM MAT379 ([3]; Log[Substrate] (M) -3.408): 1.19E-01 and 8.31E-02 and 6.99E-02
ATP - […] HT-HsProRS - 1000nM MAT379 ([3]; Log[Substrate] (M) -3.709): 1.24E-01 and 1.53E-01 and 1.47E-01 and 1.40E-01
ATP - […] HT-HsProRS - 1000nM MAT379 ([3]; Log[Substrate] (M) -4.010): 2.51E-01 and 2.58E-01 and 2.34E-01 and 2.36E-01
ATP - […] HT-HsProRS - 1000nM MAT379 ([3]; Log[Substrate] (M) -4.311): 3.56E-01 and 3.10E-01 and 3.57E-01 and 3.37E-01
ATP - […] HT-HsProRS - 1000nM MAT379 ([3]; Log[Substrate] (M) -4.612): 2.50E-01 and 3.45E-01 and 2.88E-01 and 2.85E-01
ATP - […] HT-HsProRS - 1000nM MAT379 ([3]; Log[Substrate] (M) -4.913): 3.70E-01 and 3.71E-01 and 3.06E-01 and 3.78E-01
ATP - […] HT-HsProRS - 1000nM MAT379 ([3]; Log[Substrate] (M) -5.214): 3.77E-01 and 4.09E-01 and 3.64E-01 and 3.70E-01
ATP - […] HT-HsProRS - 1000nM MAT379 ([3]; Log[Substrate] (M) -5.515): 4.23E-01 and 4.03E-01 and 4.00E-01 and 4.38E-01
ATP - […] HT-HsProRS - 1000nM MAT379 ([3]; Log[Substrate] (M) -5.816): 4.03E-01 and 4.66E-01 and 3.88E-01 and 4.49E-01
ATP - […] HT-HsProRS - 1000nM MAT379 ([3]; Log[Substrate] (M) -6.118): 4.47E-01 and 4.50E-01 and 4.51E-01 and 4.46E-01
ATP - […] HT-HsProRS - 1000nM MAT379 ([3]; Log[Substrate] (M) -6.419): 4.22E-01 and 4.52E-01 and 3.59E-01 and 4.01E-01
Kd ([4]; HsProRS (KD [nM]) mean, substrates, substrate KD, (-)): 67100 nM
Kd ([4]; KD of substrate, […] HT-HsProRS, 1000 nM MAT379): 30600 nM

C[C@H]1[C@@H](O)O[C@@H]2O[C@@]3(C)CC[C@H]4[C@H](C)CC[C@@H]1[C@@]24OO3 [DHA, dihydroartemisinin, reference compound]
EC50 [5]: 4.95 nM
EC50 ([6]; DD2, cell line S1 - Clone A8, read-out: EC50 [nM] mean): 3.4 nM
EC50 ([6]; DD2, cell line S1 - bulk population, read-out: EC50 [nM] mean): 4.5 nM
EC50 ([6]; DD2, cell line S2 - Clone A3, read-out: EC50 [nM] mean): 2 nM
EC50 ([6]; DD2, cell line S2 - Clone B9, read-out: EC50 [nM] mean): 10.1 nM
EC50 ([6]; DD2, cell line S2 - Clone C5, read-out: EC50 [nM] mean): 3.48 nM
EC50 ([6]; DD2, cell line S2 - bulk population, read-out: EC50 [nM] mean): 3.55 nM
EC50 ([6]; DD2, cell line S3 - Clone B3, read-out: EC50 [nM] mean): 3.51 nM
EC50 ([6]; DD2, cell line S3 - Clone B7, read-out: EC50 [nM] mean): 3.12 nM
EC50 ([6]; DD2, cell line S3 - bulk population, read-out: EC50 [nM] mean): 3.44 nM
EC50 ([6]; DD2, read-out: EC50 [nM] mean, cell line S3 - Clone B2): 8.34 nM

Source: article PMC9403976, “Elucidating the path to Plasmodium prolyl-tRNA synthetase inhibitors that overcome halofuginone resistance” (Nature Communications, 2022)
